# Reference: PMC8482776 (ACS Omega, 2021)
# Columns and labels:
# C. albicans (ATCC 10231) = test: Microdilution MIC90, strain A; format: cell-based; details: 24 h, strain A, yeast, 24 h at 37 °C, triplicate
# C. krusei (ATCC 6258) = test: Microdilution MIC90, strain B; format: cell-based; details: yeast, 24 h at 37 °C, triplicate
# [1] = tested on: C. parapsilosis (ATCC 22019); test: Microdilution MIC90, strain D; format: cell-based; details: 24 h
# [2] = tested on: C. tropicalis (PTCC 5028); test: Microdilution MIC90, strain E; format: cell-based; details: 24 h
# [3] = tested on: Asp. nidulans (PTCC 5014); test: Microdilution MIC90, strain F; format: cell-based, Aspergillus nidulans; details: filamentous fungi, 48 h at 37 °C, triplicate
# [4] = tested on: Asp. flavus (ATCC 204304); test: Microdilution MIC90, strain G; format: cell-based, Aspergillus flavus; details: filamentous fungi, 48 h at 37 °C, triplicate
# [5] = tested on: Asp. fumigatus (PTCC 5009); test: Microdilution MIC90, strain H; format: cell-based; details: filamentous fungi, 48 h at 37 °C, triplicate
# Asp. niger (PTCC 5154) = test: Microdilution MIC90, strain I; format: cell-based, Aspergillus niger; details: filamentous fungi, 48 h at 37 °C, triplicate
# Asp. terreus (PTCC 5023) = test: Microdilution MIC90, strain J; format: cell-based, Aspergillus terreus; details: Aspergillus terreus, PTCC5023, 48 h, filamentous fungi, 48 h at 37 °C, triplicate
# T. rubrum (PTCC 5143) = test: Microdilution MIC90, strain K; format: cell-based, Trichophyton rubrum; details: filamentous fungi, 48 h at 37 °C, triplicate
# [6] = tested on: T. mentagrophytes (PTCC 5054); test: Microdilution MIC90, strain M; format: cell-based; details: Trichophyton mentagrophytes, PTCC5054, 48 h
# [7] = tested on: T. schoenleinii (PTCC 5221); test: Microdilution MIC90, strain N; format: cell-based; details: Trichophyton schoenleinii, PTCC5221, 48 h
# M. canis (PTCC 5069) = test: Microdilution MIC90, strain O; format: cell-based; details: Microsporum canis, PTCC5069, 48 h
# C. glabrata (ATCC 90030) = test: Microdilution MIC90, strain C; format: cell-based; details: 24 h, yeast, 24 h at 37 °C, triplicate
# [8] = tested on: Microsporum gypseum (PTCC 5070); test: Microdilution MIC90, strain L; format: cell-based; details: filamentous fungi, 48 h at 37 °C, triplicate
# [9] = Aspergillus nidulans, PTCC5014, 48 h
# [10] = Aspergillus flavus, ATCC204304, 48 h
# [11] = Aspergillus fumigatus, PTCC5009, 48 h
# [12] = Aspergillus niger, PTCC5154, 48 h
# [13] = Trichophyton rubrum, PTCC5143, 48 h
MIC90 (C. albicans (ATCC 10231)) [µg/mL],MIC90 (C. krusei (ATCC 6258); 24 h) [µg/mL],MIC90 [1] [µg/mL],MIC90 [2] [µg/mL],"MIC90 [3, 9] [µg/mL]","MIC90 [4, 10] [µg/mL]","MIC90 [5, 11] [µg/mL]",MIC90 (Asp. niger (PTCC 5154); [12]) [µg/mL],MIC90 (Asp. terreus (PTCC 5023)) [µg/mL],MIC90 (T. rubrum (PTCC 5143); [13]) [µg/mL],MIC90 [6] [µg/mL],MIC90 [7] [µg/mL],MIC90 (M. canis (PTCC 5069)) [µg/mL],MIC90 (C. glabrata (ATCC 90030)) [µg/mL],MIC90 [3] [μg·mL^–1],MIC90 [4] [μg·mL^–1],Structure (SMILES),further results
,,4,16,2 to 4,2 to 4,16,16,16,8,32,16,16,16,4,2,"O=C(Nc1nnc(SCC(O)(Cn2cncn2)c2ccc(F)cc2F)s1)Nc1ccccc1C(F)(F)F (stereo not drawn) [Compound 8k, 1-(5-((2-(2,4-Difluorophenyl)-2-hydroxy-3-(1H-1,2,4-triazol-1-yl)propyl)thio)-1,3,4-thiadiazol-2-yl)-3-(2-(trifluoromethyl)phenyl)urea]",
,,8,,8,2 to 4,,,,,,,,,,4,"O=C(Nc1nnc(SCC(O)(Cn2cncn2)c2ccc(F)cc2F)s1)Nc1ccccc1Cl (stereo not drawn) [Compound 8l, 1-(2-Chlorophenyl)-3-(5-((2-(2,4-difluorophenyl)-2-hydroxy-3-(1H-1,2,4-triazol-1-yl)propyl)thio)-1,3,4-thiadiazol-2-yl)urea]",
32,,16,8,8,8,32,32,16,2 to 4,32,64,64,16,,,"O=C(Nc1nnc(SCC(O)(Cn2cncn2)c2ccc(F)cc2F)s1)Nc1ccccc1Br (stereo not drawn) [Compound 8m, 1-(2-Bromophenyl)-3-(5-((2-(2,4-difluorophenyl)-2-hydroxy-3-(1H-1,2,4-triazol-1-yl)propyl)thio)-1,3,4-thiadiazol-2-yl)urea]",MIC90 (T. rubrum (PTCC 5143)): 4 μg·mL^–1
,,,,2 to 4,8,,,,,,,,,4,,"Cc1ccccc1NC(=O)Nc1nnc(SCC(O)(Cn2cncn2)c2ccc(F)cc2F)s1 (stereo not drawn) [Compound 8n, 1-(5-((2-(2,4-Difluorophenyl)-2-hydroxy-3-(1H-1,2,4-triazol-1-yl)propyl)thio)-1,3,4-thiadiazol-2-yl)-3-(o-tolyl)urea]",

# Further lines, the compound ahead of its results:
Structure (SMILES),MIC90 (C. albicans (ATCC 10231)) [µg/mL],MIC90 (C. krusei (ATCC 6258); 24 h) [µg/mL],MIC90 [1] [µg/mL],MIC90 [2] [µg/mL],"MIC90 [3, 9] [µg/mL]","MIC90 [4, 10] [µg/mL]","MIC90 [5, 11] [µg/mL]",MIC90 (Asp. niger (PTCC 5154); [12]) [µg/mL],MIC90 (Asp. terreus (PTCC 5023)) [µg/mL],MIC90 (T. rubrum (PTCC 5143); [13]) [µg/mL],MIC90 [6] [µg/mL],MIC90 [7] [µg/mL],MIC90 (M. canis (PTCC 5069)) [µg/mL],MIC90 (C. glabrata (ATCC 90030)) [µg/mL],MIC90 [3] [μg·mL^–1],MIC90 [4] [μg·mL^–1],further results
"O=C(Nc1ccc(Cl)cc1)Nc1nnc(SCC(O)(Cn2cncn2)c2ccc(F)cc2F)s1 (stereo not drawn) [Compound 8a, 1-(4-Chlorophenyl)-3-(5-((2-(2,4-difluorophenyl)-2-hydroxy-3-(1H-1,2,4-triazol-1-yl)propyl)thio)-1,3,4-thiadiazol-2-yl)urea]",32,1 to 16,8,32,16,8,2 to 4,2 to 4,8,2,16,8,2,,,,MIC90 (C. krusei (ATCC 6258)): 1 μg·mL^–1; MIC90 [5]: 1 μg·mL^–1; MIC90 (Asp. niger (PTCC 5154)): 4 μg·mL^–1
"O=C(Nc1ccc(Br)cc1)Nc1nnc(SCC(O)(Cn2cncn2)c2ccc(F)cc2F)s1 (stereo not drawn) [Compound 8d, 1-(4-Bromophenyl)-3-(5-((2-(2,4-difluorophenyl)-2-hydroxy-3-(1H-1,2,4-triazol-1-yl)propyl)thio)-1,3,4-thiadiazol-2-yl)urea]",32,,8,32,2 to 4,8,64,64,32,4,32,32,64,32,4,,
"O=C(Nc1cccc(Cl)c1)Nc1nnc(SCC(O)(Cn2cncn2)c2ccc(F)cc2F)s1 (stereo not drawn) [Compound 8f, 1-(3-Chlorophenyl)-3-(5-((2-(2,4-difluorophenyl)-2-hydroxy-3-(1H-1,2,4-triazol-1-yl)propyl)thio)-1,3,4-thiadiazol-2-yl)urea]",4,,8,,2 to 4,2 to 4,,,,2,,,,,4,4,MIC90 [8]: 4 μg·mL^–1
"COc1cccc(NC(=O)Nc2nnc(SCC(O)(Cn3cncn3)c3ccc(F)cc3F)s2)c1 (stereo not drawn) [Compound 8h, 1-(5-((2-(2,4-Difluorophenyl)-2-hydroxy-3-(1H-1,2,4-triazol-1-yl)propyl)thio)-1,3,4-thiadiazol-2-yl)-3-(3-methoxyphenyl)urea]",16,8,4,16,2 to 4,8,16,8,16,2,16,32,32,,4,,
"Cc1cccc(NC(=O)Nc2nnc(SCC(O)(Cn3cncn3)c3ccc(F)cc3F)s2)c1 (stereo not drawn) [Compound 8i, 1-(5-((2-(2,4-Difluorophenyl)-2-hydroxy-3-(1H-1,2,4-triazol-1-yl)propyl)thio)-1,3,4-thiadiazol-2-yl)-3-(m-tolyl)urea]",8,16,8,8,2 to 4,2 to 4,8,16,32,16,16,8,16,32,2,2,
"O=C(Nc1cccc(C(F)(F)F)c1)Nc1nnc(SCC(O)(Cn2cncn2)c2ccc(F)cc2F)s1 (stereo not drawn) [Compound 8j, 1-(5-((2-(2,4-Difluorophenyl)-2-hydroxy-3-(1H-1,2,4-triazol-1-yl)propyl)thio)-1,3,4-thiadiazol-2-yl)-3-(3-(trifluoromethyl)phenyl)urea]",,32,8,16,16,16,16,32,32,8,16,16,16,32,,,
"O=C(Nc1ccc(Cl)c(Cl)c1)Nc1nnc(SCC(O)(Cn2cncn2)c2ccc(F)cc2F)s1 (stereo not drawn) [Compound 8q, 1-(3,4-Dichlorophenyl)-3-(5-((2-(2,4-difluorophenyl)-2-hydroxy-3-(1H-1,2,4-triazol-1-yl)propyl)thio)-1,3,4-thiadiazol-2-yl)urea]",32,,4,16,8,8,32,32,8,2 to 4,16,16,16,,,,MIC90 (T. rubrum (PTCC 5143)): 4 μg·mL^–1
